ChEMBL document CHEMBL1127968, “Examination of peptidic ,-diamino-,-difluoroketones as inhibitors of human leukocyte elastase” (Bioorg Med Chem Lett, 1994)

These compounds were tested against T1, Neutrophil elastase (Homo sapiens, UniProt P08246) (assay: In vitro inhibitory activity against human leukocyte elastase was determined).
T1 sequence (P08246 whole entry): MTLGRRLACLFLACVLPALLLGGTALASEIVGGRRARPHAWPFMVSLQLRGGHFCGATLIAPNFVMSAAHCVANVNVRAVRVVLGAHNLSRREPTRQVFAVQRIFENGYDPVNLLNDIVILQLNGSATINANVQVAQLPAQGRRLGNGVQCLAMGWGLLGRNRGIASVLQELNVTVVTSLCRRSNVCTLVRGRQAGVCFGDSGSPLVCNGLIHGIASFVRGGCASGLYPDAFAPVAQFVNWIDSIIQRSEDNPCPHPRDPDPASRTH

| SMILES | IC50 | Ki |
| --- | --- | --- |
| CC(C)CC(=O)NCC(F)(F)C(=O)C(CC1CCCCC1)NC(=O)[C@@H](NC(=O)[C@H](Cc1ccccc1)NC(=O)OC(C)(C)C)C(C)C (stereo partly specified) | 3.5 nM | – |
| CNC(=O)C(F)(F)C(=O)[C@@H](NC(=O)[C@@H]1CCCN1C(=O)[C@@H](NC(=O)Oc1ccccc1)C(C)C)C(C)C | – | 0.85 nM |
| CC(C)[C@H](NC(=O)OCc1ccccc1)C(=O)N1CCC[C@H]1C(=O)N[C@H](C(=O)C(F)(F)CNC(=O)OC(C)(C)C)C(C)C | – | 1.1 nM |
| COc1ccc(C(=O)N[C@H](C(=O)N2CCC[C@H]2C(=O)N[C@H](C(=O)C(F)(F)C(N)=O)C(C)C)C(C)C)cc1 | – | 0.65 nM |
| CC(C)[C@H](NC(=O)OCc1ccccc1)C(=O)N1CCC[C@H]1C(=O)N[C@H](C(=O)C(F)(F)CNCc1ccccc1)C(C)C | – | 1.6 nM |
| CC(C)[C@H](NC(=O)Oc1ccccc1)C(=O)N1CCC[C@H]1C(=O)N[C@H](C(=O)C(F)(F)CN)C(C)C | – | 0.81 nM |
| CNC(=O)C(F)(F)C(=O)[C@@H](NC(=O)[C@@H]1CCCN1C(=O)[C@@H](NC(=O)c1ccc(OC)cc1)C(C)C)C(C)C | – | 3.4 nM |
| CNC(=O)C(F)(F)C(=O)[C@@H](NC(=O)[C@@H]1CCCN1C(=O)[C@@H](NC(=O)OCc1ccccc1)C(C)C)C(C)C | – | 3 nM |
| COc1ccc(C(=O)N[C@H](C(=O)N2CCC[C@H]2C(=O)N[C@H](C(=O)C(F)(F)CNCc2ccccc2)C(C)C)C(C)C)cc1 | – | 0.35 nM |
| COc1ccc(C(=O)N[C@H](C(=O)N2CCC[C@H]2C(=O)N[C@H](C(=O)C(F)(F)CN)C(C)C)C(C)C)cc1 | – | 15 nM |
| CC(C)[C@H](NC(=O)Oc1ccccc1)C(=O)N1CCC[C@H]1C(=O)N[C@H](C(=O)C(F)(F)CNCc1ccccc1)C(C)C | – | 4.1 nM |
| COc1ccc(C(=O)N[C@H](C(=O)N2CCC[C@H]2C(=O)N[C@H](C(=O)C(F)(F)CNC(=O)OC(C)(C)C)C(C)C)C(C)C)cc1 | – | 3.4 nM |
| CC(C)[C@H](NC(=O)OCc1ccccc1)C(=O)N1CCC[C@H]1C(=O)N[C@H](C(=O)C(F)(F)CN)C(C)C | – | 130 nM |
| CC(C)[C@H](NC(=O)OCc1ccccc1)C(=O)N1CCC[C@H]1C(=O)N[C@H](C(=O)C(F)(F)C(N)=O)C(C)C | – | 0.38 nM |
| CC(C)[C@H](NC(=O)Oc1ccccc1)C(=O)N1CCC[C@H]1C(=O)N[C@H](C(=O)C(F)(F)F)C(C)C | – | 2.3 nM |
| CC(C)[C@H](NC(=O)Oc1ccccc1)C(=O)N1CCC[C@H]1C(=O)N[C@H](C(=O)C(F)(F)CNC(=O)OC(C)(C)C)C(C)C | – | 0.39 nM |
